According to PubChem BioAssay AID1117319 (Southern Research Institute, 2015):
Results filed as inconclusive are left out.

Biological target: Virion infectivity factor (Human immunodeficiency virus type 1 group M subtype B (isolate BH10)) + Virion infectivity factor (Human immunodeficiency virus type 1 group M subtype B (isolate BRU/LAI)) + Virion infectivity factor (Human immunodeficiency virus type 1 group M subtype B (isolate PCV12)) + Virion infectivity factor (Human immunodeficiency virus type 1 group M subtype B (isolate HXB2)) + DNA dC->dU-editing enzyme APOBEC-3G (Homo sapiens) (UniProt P69720+P69721+P69722+P69723+Q9HC16)
Assay: HIV-1 Vif–A3G interaction blockers – biochemical, TR-FRET, GST-Vif 1-94, biotin-A3G peptide, dose response retest, primary screen (AID 1117319);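 further: Vif residues 1-94 fused to GST binding biotinylated APOBEC3G peptide 110-148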
Details: TR-FRET GST-Vif / biotin-A3G peptide binding

c1coc(-c2nc3ccccc3nc2-c2ccco2)c1
IC50: 1.39 µM

Cc1nc2ccc(NC(=O)Cc3cccs3)cc2s1
IC50: 84 µM

CCOC(=O)C1(C)NC(c2ccco2)C2C(=O)N(CC)C(=O)C21 (stereo unspecified)
IC50: 99.2 µM

CC1=C(O)C(=O)C=C2C1=CC=C1C2(C)CCC2(C)C3CC(C)(C(=O)O)CCC3(C)CCC12C (stereo unspecified)
IC50: 12.2 µM

Cc1ccc(OCCSc2nnc(-c3ccncc3)n2C)cc1
IC50: 75.9 µM

CCN(CC)c1ccc(C2NC(=O)NC(C)=C2C(=O)Nc2ccccc2)cc1 (stereo unspecified)
IC50: 84.4 µM

Nc1nc(Sc2ccc([N+](=O)[O-])c3nonc23)c2[nH]cnc2n1
IC50: 10.9 µM

COc1ccc(OC)c(Nc2nc(-c3ccc(O)c(O)c3)cs2)c1
IC50: 4.19 µM

COc1ccccc1-n1c(-c2cc(-c3ccco3)[nH]n2)n[nH]c1=S
IC50: 3.11 µM

Cn1cccc1/C=C1\C(=O)NC(=O)N(Cc2ccccc2)C1=O
IC50: 11.2 µM

CCN(CC)S(=O)(=O)c1cccc(C(=O)N/N=C/c2ccc(O)c(O)c2O)c1
IC50: 3.48 µM

CNc1cccccc1=S
IC50: 0.51 µM

O=C(Cc1cccs1)N/N=C/C=C/c1ccco1
IC50: 3.68 µM

CCN(CC)c1ccc(NC(=O)CCS(=O)(=O)c2ccc(Br)cc2)c(C)c1
IC50: 5.51 µM

CN(C)c1ccc2cc(S(=O)(=O)O)cc(O)c2c1
IC50: 10.2 µM

Oc1ccc(/C=N/NC2=NCCCCC2)c(O)c1
IC50: 4.9 µM

CN(C)c1ccc(C=c2c3cc([N+](=O)[O-])ccc3n3c2cc(-c2ccccc2)[n+]3C)cc1
IC50: 3.58 µM

CCN1C(=O)/C(=C\c2ccco2)C(C(=O)OC)=C1C
IC50: 23 µM

COc1cc(/C=C2\CC/C(=C\c3cc(OC)c(O)c(OC)c3)C2=O)cc(OC)c1O
IC50: 1.56 µM

O=C(CSc1nc(-c2ccco2)cc(C(F)(F)F)n1)N1CCc2ccccc2C1
IC50: 22.8 µM

CSc1oc(-c2ccco2)nc1S(=O)(=O)c1ccccc1
IC50: 31.5 µM

O=C(O)Cn1cc(/C=C2\C(=O)NC(=O)N(Cc3ccco3)C2=O)c2ccccc21
IC50: 14.7 µM

COc1ccc(/C=N/NC(=O)CNc2n[nH]c(=O)[nH]c2=O)cc1OC
IC50: 42.6 µM

Cc1ccc(/C=C/C(=O)Nc2ccc([N+](=O)[O-])c(NC(=O)/C=C/c3ccc(C)o3)c2)o1
IC50: 1.49 µM

COc1ccc2c(c1)c1ccc3c(c1n2C)C(=O)C=CC3=O
IC50: 2.42 µM

O=C1NC(=O)N(Cc2ccco2)C(=O)/C1=C/C=C/c1ccco1
IC50: 0.91 µM

Oc1cc2c(cc1O)C1c3ccc(O)c(O)c3OCC1(O)C2 (stereo unspecified)
IC50: 0.46 µM

CNc1ccc(Br)cc(C(=O)/C=C/c2ccc(OC)cc2)c1=O
IC50: 3.53 µM

O=C(NCCN1CCN(c2ccccc2)CC1)C1CCN(S(=O)(=O)c2cccc3nonc23)CC1
IC50: 43 µM

O=[N+]([O-])c1ccc(Cl)c(S(=O)(=O)Nc2cccc(S(=O)(=O)NC3=NCCC3)c2)c1
IC50: 5.64 µM

CCOc1cc(N2CCOCC2)c(OCC)cc1NC(=O)CSc1ncn[nH]1
IC50: 11.9 µM

COc1ccc(NC(=O)CN(C)C(=O)c2cccc(-n3cccc3)c2)cc1
IC50: 14.9 µM

CCc1c(C)sc(NC(=O)OC)c1C(=O)N1CCCCC1
IC50: 42.7 µM

COc1ccc2nc(-c3ccco3)c(-c3ccco3)nc2c1
IC50: 0.35 µM

C=CCn1c(C)c(C(C)=O)c(N2CCN(c3ccccc3)CC2)nc1=S
IC50: 8.23 µM

Oc1ccccc1/C=N/c1c(-c2ccco2)nc2ccccn12
IC50: 0.48 µM

Cc1ccc(Cn2c(=S)[nH]c3ccc(N4CCOCC4)cc3c2=O)o1
IC50: 0.61 µM

O=C(/C=C/c1ccc(O)c(O)c1)c1ccc(S(=O)(=O)N2CCCCCC2)cc1
IC50: 2.29 µM

Cc1ccc(Cl)cc1N1CCN(C(=O)COc2ccc3c(c2)CCC3)CC1
IC50: 45.4 µM

O=C1NC(=O)C(=Cc2ccco2)C(=O)N1
IC50: 19.9 µM

N#C/C(C(N)=O)=c1/ccc2c(c1)N1C3=C(CCCC3)CC3CCCCC31N=2 (stereo unspecified)
IC50: 28.2 µM

CCN(CC)Cc1cc(O)c(CN(CC)CC)cc1O
IC50: 10.8 µM

CC(=O)NN1C(=O)/C(=C\c2ccc(Br)o2)SC1=S
IC50: 5.73 µM

COc1ccc2c3c(cccc13)N(C)N=C2C
IC50: 4.23 µM

CCCCn1c(=NC(=O)c2cccnc2)c(C#N)cc2c(=O)n3cccc(C)c3nc21
IC50: 55.9 µM

CC(/C=C/c1ccco1)=N\NC(=O)c1cccnc1
IC50: 20.3 µM

O=C(NCc1ccco1)c1cc(-c2cccc(Cl)c2)on1
IC50: 36.9 µM

C=C(C)C(=O)Nc1cccc(C2=NOC3(C2)C[C@@H](C(N)=O)N(C(=O)c2cc([N+](=O)[O-])cc([N+](=O)[O-])c2)C3)c1 (stereo partly specified)
IC50: 4.69 µM

O=C(NCc1ccc2c(c1)OCO2)c1cc2ncc(Br)cn2n1
IC50: 33.7 µM

CCC(C)NC(=O)Cc1cn(C)c2ccccc12 (stereo unspecified)
IC50: 87.5 µM

COc1ccccc1CNC(=O)COC(=O)c1cc(-c2ccco2)nc2ccccc12
IC50: 9.99 µM

Cc1ccc(SCCN2C(=O)NC(C)(C)C2=O)cc1
IC50: 7.32 µM

CCCCC1=CC2=CC(=O)C(C)(OC(=O)c3cnc4ccccc4n3)C(=O)C2=CO1 (stereo unspecified)
IC50: 12.4 µM

NC(=O)Cn1c(=O)n(Cc2ccco2)c(=O)c2c3c(sc21)CCCCC3
IC50: 3.8 µM

COc1cc(-c2ccc(Nc3ccccc3C(=O)O)c(OC)c2)ccc1Nc1ccccc1C(=O)O
IC50: 0.94 µM

O=C(CCc1c[nH]c2ccccc12)N1CCN(c2ccc(O)cc2)CC1
IC50: 13.3 µM
